Reference: patent publication US20240002391A1, “4-ALKOXYPYRROLO[2,1-F][1,2,4]TRIAZINES AND PREPARATION AND USES THEREOF” (BioSplice Therapeutics, Inc., priority 2022, published 2024)

These molecules were tested against recombinant DYRK1A kinase (Homo sapiens (Human), UniProt Q13627) (assay: DYRK1A kinase assay (Ser/Thr 18 peptide Z-lyte FRET)). Settings: DYRK1A kinase activity, Z-lyte Ser/Thr 18 peptide, 15 μM ATP; method text calls the value IC50; read-out: EC50 (the source's name).
Assay type: biochemical
Protocol: Representative compounds were screened using the assay procedure for DYRK1A kinase activity as described below.
Each compound was dissolved in DMSO as a 10 mM stock and used to prepare compound source plates. Serial dilution (1:3, 11-point dose-response curves from 10 μM to 0.00016 μM) and compound transfer was performed using the ECHO 550 (Labcyte, Sunnyvale, CA) into 1536-well black-walled round bottom plates (Coming).
The DYRK1A kinase assay was run using the Ser/Thr 18 peptide Z-lyte assay kit according to manufacturer's instructions (Life Technologies-a Division of Thermo-Fisher). This is a non-radioactive assay using fluorescence resonance energy transfer (FRET) between coumarin and fluorescein to detect kinase activity which is represented as a ratio of coumarin emission/fluorescein emission.
Briefly, recombinant DYRK1A kinase, ATP and Ser/Thr peptide 18 were prepared in 1X Kinase buffer to final concentrations of 0.25 μg/mL, 15 μM, and 4 μM respectively. The mixture was allowed to incubate with the representative compounds for one hour at room temperature. All reactions were performed in duplicate. Unphosphorylated (“0% Control”) and phosphorylated (“100% control”) forms of Ser/Thr 18 served as control reactions. Additionally, an 11-point dose-response curve of Staurosporine (luM top) was run to serve as a positive compound control.
After incubation, Development Reagent A was diluted in Development Buffer then added to the reaction and allowed to further incubate for one hour at room temperature. The plate was read at Ex 400 Em 455 to detect the coumarin signal and Ex 400 Em 520 to measure the signal (EnVision Multilabel Plate Reader, PerkinElmer).
The Emission ratio (Em) was calculated as a ratio of the coumarin (C) emission signal (at 445 nm)/Fluorescein (F) emission signal (at 520 nm). The percent phosphorylation was then calculated using the following formula: [1−((Em ratio X F100%)-C100%)/((C0%-C100%) +(Em ratio X (F100%−F0%)))]. Dose-response curves were generated, and inhibitory concentration (IC50) values were calculated using non-linear regression curve fit in the Dotmatics' Studies Software (Bishops Stortford, UK).

Compound | IC50 [nM]
CNC(=O)[C@]1(C)C[C@@H](Nc2nc(OC)c3c(-c4ccc5ncccc5c4)ccn3n2)C1 [Compound 1038, trans-3-((4-Methoxy-5-(quinolin-6-yl)pyrrolo[2,1-f][1,2,4]triazin-2-yl)amino)-N,1-dimethylcyclobutane-1-carboxamide] | 0.5
COc1nc(N[C@H]2CC[C@@](C)(O)CC2)nn2ccc(-c3ccc4nnn(CC(F)F)c4c3)c12 [Compound 724, (1s,4s)-4-((5-(1-(2,2-Difluoroethyl)-1H-benzo[d][1,2,3]triazol-6-yl)-4-methoxypyrrolo[2,1-f][1,2,4]triazin-2-yl)amino)-1-methylcyclohexan-1-ol] | 1.1
COc1nc(NC2CCC3(CC2)COC3)nn2ccc(-c3ccn4nccc4c3)c12 [Compound 395, 4-Methoxy-5-(pyrazolo[1,5-a]pyridin-5-yl)-N-(2-oxaspiro[3.5]nonan-7-yl)pyrrolo[2,1-f][1,2,4]triazin-2-amine] | 6.2
COc1nc(N[C@H]2C[C@](C)(C(=O)N3CCCC3)C2)nn2ccc(-c3ccc4nnn(C)c4c3)c12 [Compound 222, (trans-3-((4-methoxy-5-(1-methyl-1H-benzo[d][1,2,3]triazol-6-yl)pyrrolo[2,1-f][1,2,4]triazin-2-yl)amino)-1-methylcyclobutyl)(pyrrolidin-1-yl)methanone] | 3.5
COc1nc(N[C@@H]2CN(C3COC3)C[C@@H]2F)nn2ccc(-c3ccc4nc(C)n(CC(F)F)c4c3)c12 [Compound 506, 5-(1-(2,2-Difluoroethyl)-2-methyl-1H-benzo[d]imidazol-6-yl)-N-((3R,4S)-4-fluoro-1-(oxetan-3-yl)pyrrolidin-3-yl)-4-methoxypyrrolo[2,1-f][1,2,4]triazin-2-amine] | 2.3
COc1nc(N[C@H]2C[C@](C)(NC(C)=O)C2)nn2ccc(-c3ccc4nc(C)n(CCO)c4c3)c12 [Compound 171, N-(trans-3-((5-(1-(2-Hydroxyethyl)-2-methyl-1H-benzo[d]imidazol-6-yl)-4-methoxypyrrolo[2,1-f][1,2,4]triazin-2-yl)amino)-1-methylcyclobutyl)acetamide] | 2.9
COc1nc(N[C@H]2CC[C@](C)(O)CC2)nn2ccc(-c3cc(F)c4nc(C)n(CC(F)F)c4c3)c12 [Compound 151, trans-4-((5-(1-(2,2-difluoroethyl)-4-fluoro-2-methyl-1H-benzo[d]imidazol-6-yl)-4-methoxypyrrolo[2,1-f][1,2,4]triazin-2-yl)amino)-1-methylcyclohexan-1-ol] | 1.7
COCCO[C@H]1CC[C@H](Nc2nc(OC)c3c(-c4ccn5nccc5c4)ccn3n2)CC1 [Compound 16, 4-Methoxy-N-(trans-4-(2-methoxyethoxy)cyclohexyl)-5-(pyrazolo[1,5-a]pyridin-5-yl)pyrrolo[2,1-f][1,2,4]triazin-2-amine] | 34.4
COc1nc(N[C@H]2CCN(C)C[C@H]2F)nn2ccc(-c3ccc4nccnc4c3)c12 [Compound 368, N-((3R,4S)-3-Fluoro-1-methylpiperidin-4-yl)-4-methoxy-5-(quinoxalin-6-yl)pyrrolo[2,1-f][1,2,4]triazin-2-amine] | 4
COc1nc(N[C@H]2C[C@](C)(C(=O)NC3(C)CCC3)C2)nn2ccc(-c3ccc4ncccc4c3)c12 [Compound 1040, trans-3-((4-Methoxy-5-(quinolin-6-yl)pyrrolo[2,1-f][1,2,4]triazin-2-yl)amino)-1-methyl-N-(1-methylcyclobutyl)cyclobutane-1-carboxamide] | 2.7
COc1nc(N[C@@H]2CCN(C)CC2(F)F)nn2ccc(-c3ccc4ncccc4c3)c12 [Compound 319, (R)—N-(3,3-Difluoro-1-methylpiperidin-4-yl)-4-methoxy-5-(quinolin-6-yl)pyrrolo[2,1-f][1,2,4]triazin-2-amine] | 2.2
COc1nc(N[C@@H]2CN(C)C[C@@H]2F)nn2ccc(-c3ccc4nc(C)n(CC(F)F)c4c3)c12 [Compound 114, 5-(1-(2,2-Difluoroethyl)-2-methyl-1H-benzo[d]imidazol-6-yl)-N-((3R,4S)-4-fluoro-1-methylpyrrolidin-3-yl)-4-methoxypyrrolo[2,1-f][1,2,4]triazin-2-amine] | 1.9
COc1nc(N[C@@H]2CN(C)C[C@@H]2F)nn2ccc(-c3ccc4nnn(CC(F)F)c4c3)c12 [Compound 730, 5-(1-(2,2-Difluoroethyl)-1H-benzo[d][1,2,3]triazol-6-yl)-N-((3R,4S)-4-fluoro-1-methylpyrrolidin-3-yl)-4-methoxypyrrolo[2,1-f][1,2,4]triazin-2-amine] | 4.6
COc1nc(N[C@H](C)C2COC2)nn2ccc(-c3cnc4nccn4c3)c12 [Compound 927, (R)-5-(Imidazo[1,2-a]pyrimidin-6-yl)-4-methoxy-N-(1-(oxetan-3-yl)ethyl)pyrrolo[2,1-f][1,2,4]triazin-2-amine] | 1.2
CNC(=O)c1cnn2ccc(-c3ccn4nc(N[C@H]5CC[C@](C)(OC)CC5)nc(OC)c34)cc12 [Compound 405, 5-(4-Methoxy-2-(((1r,4r)-4-methoxy-4-methylcyclohexyl)amino)pyrrolo[2,1-f][1,2,4]triazin-5-yl)-N-methylpyrazolo[1,5-a]pyridine-3-carboxamide] | 0.7
COc1nc(N[C@H]2CC[C@](C)(O)CC2)nn2ccc(-c3ccc4ncc(C(N)=O)n4c3)c12 [Compound 104, 6-(2-((trans-4-hydroxy-4-methylcyclohexyl)amino)-4-methoxypyrrolo[2,1-f][1,2,4]triazin-5-yl)imidazo[1,2-a]pyridine-3-carboxamide] | 1.2
COc1nc(N[C@H]2CC[C@@H](NC(C)=O)CC2)nn2ccc(-c3ccn4nccc4c3)c12 [Compound 17, N-(cis-4-((4-methoxy-5-(pyrazolo[1,5-a]pyridin-5-yl)pyrrolo[2,1-f][1,2,4]triazin-2-yl)amino)cyclohexyl)acetamide] | 17.5
COc1nc(N[C@H]2CC[C@@](C)(O)CC2)nn2ccc(-c3ccn4nccc4c3)c12 [Compound 19, cis-4-((4-Methoxy-5-(pyrazolo[1,5-a]pyridin-5-yl)pyrrolo[2,1-f][1,2,4]triazin-2-yl)amino)-1-methylcyclohexan-1-ol] | 14.1
COc1nc(N[C@H]2C[C@](C)(NC(C)=O)C2)nn2ccc(-c3cc(F)c4nc(C)n(CC(F)F)c4c3)c12 [Compound 149, N-((1r,3r)-3-((5-(1-(2,2-Difluoroethyl)-4-fluoro-2-methyl-1H-benzo[d]imidazol-6-yl)-4-methoxypyrrolo[2,1-f][1,2,4]triazin-2-yl)amino)-1-methylcyclobutyl)acetamide] | 1.5
COc1nc(NC2CCC3(CC2)COC3)nn2ccc(-c3ccc4nncn4c3)c12 [Compound 188, 5-([1,2,4]Triazolo[4,3-a]pyridin-6-yl)-4-methoxy-N-(2-oxaspiro[3.5]nonan-7-yl)pyrrolo[2,1-f][1,2,4]triazin-2-amine] | 50.3
COc1nc(NC2CC3(CCOCC3)C2)nn2ccc(-c3ccc4nccnc4c3)c12 [Compound 1100, 4-Methoxy-5-(quinoxalin-6-yl)-N-(7-oxaspiro[3.5]nonan-2-yl)pyrrolo[2,1-f][1,2,4]triazin-2-amine] | 6.7
COc1nc(N[C@H]2CC[C@](C)(O)CC2)nn2ccc(-c3ccc4nc(C)nn4c3)c12 [Compound 622, (1r,4r)-4-((4-Methoxy-5-(2-methyl-[1,2,4]triazolo[1,5-a]pyridin-6-yl)pyrrolo[2,1-f][1,2,4]triazin-2-yl)amino)-1-methylcyclohexan-1-ol] | 14.1
COc1nc(N[C@H]2CCN(C(C)=O)C[C@H]2F)nn2ccc(-c3cc(F)c4nc(C)n(CC(F)F)c4c3)c12 [Compound 521, 1-((3R,4S)-4-((5-(1-(2,2-Difluoroethyl)-4-fluoro-2-methyl-1H-benzo[d]imidazol-6-yl)-4-methoxypyrrolo[2,1-f][1,2,4]triazin-2-yl)amino)-3-fluoropiperidin-1-yl)ethan-1-one] | 2.6
COCCO[C@H]1CC[C@@H](Nc2nc(OC)c3c(-c4ccn5nccc5c4)ccn3n2)CC1 [Compound 15, 4-Methoxy-N-(cis-4-(2-methoxyethoxy)cyclohexyl)-5-(pyrazolo[1,5-a]pyridin-5-yl)pyrrolo[2,1-f][1,2,4]triazin-2-amine] | 33.7
COc1nc(N[C@H]2CCN(C3COC3)C[C@H]2F)nn2ccc(-c3ccc4nc(C)n(CC(F)F)c4c3)c12 [Compound 137, 5-(1-(2,2-Difluoroethyl)-2-methyl-1H-benzo[d]imidazol-6-yl)-N-((3R,4S)-3-fluoro-1-(oxetan-3-yl)piperidin-4-yl)-4-methoxypyrrolo[2,1-f][1,2,4]triazin-2-amine] | 1.9
